In patent publication US10604555B2, “GIP derivatives and uses thereof” (priority 2018, dated 2020):
*1 amine or outer side, *2 acyl side, *3 side chain or, on linkers, in order; H or OH if unused. Where a SMILES comes first, the peptide text is derived from it. Where no end group is shown, it is not given here. Side-chain parts run from the residue outwards. [ ]: non-standard residue; d: D form. The star is where a group is joined. X1 = O=C(O)CCCCCCCCCCCCCCCCCCC(=O)NCC1CCC(C(=O)*)CC1; C18 diacid = O=C(O)CCCCCCCCCCCCCCCCC(=O)*; γGlu = O=C(O)[C@H](CCC(=O)[*:2])N[*:1]; Nle = CCCC[C@H](N)C(=O)O; AEEA = NCCOCCOCC(=O)O; Aib = CC(C)(N)C(=O)O

Experiments:
Assay type in all cases: physicochemical
[1] = Chemical stability: HMWP formation by SEC-MS; settings: 37° C., 4 weeks, 250 μM, pH 7.4
Experimental: The aim of this study is to determine the chemical stability of GIP derivative compositions. As a measure of stability of the GIP derivative composition, the formation of high molecular weight peptide formation (% HMWP) as a function of time was analysed by size-exclusion chromatography (SEC-MS). Further, the purity loss of the GIP derivative compositions was measured by LCMS. Samples for chemical stability assays were freshly prepared before each assay. […] The pH of the sample was adjusted to the desired value using appropriate amounts of concentrated NaOH and HCl. […] Formation of covalent oligomers (HMWPs) was analysed and identified by a SEC-MS method. […] The LC system was coupled to both a TUV detector operated at 215 nm, 10 Hz and a high resolution QToF mass spectrometer from Waters (Synapt G2S) operated in positive ion mode and m/z range of 100 to 4000 with normal resolution setting. Lock mass correction against Leu-Enkephalin was done every 31 sec. Spectra were processed in MassLynx version 4.1 and MaxEnt deconvoluted.

[2] = Chemical stability: purity loss by LCMS; settings: 37° C., 4 weeks, 250 μM, pH 7.4
Experimental: The aim of this study is to determine the chemical stability of GIP derivative compositions. As a measure of stability of the GIP derivative composition, the formation of high molecular weight peptide formation (% HMWP) as a function of time was analysed by size-exclusion chromatography (SEC-MS). Further, the purity loss of the GIP derivative compositions was measured by LCMS. Samples for chemical stability assays were freshly prepared before each assay. […] The pH of the sample was adjusted to the desired value using appropriate amounts of concentrated NaOH and HCl. […] The column oven was kept at 55° C. […] The solvents were pumped from a binary solvent manager system and mixed on the high pressure side in a mixer with a volume of 50 μl. The gradient and flow can be seen in table 4: [table] A Flow-through-needle auto sampler at 8° C. was used to inject 1 μl of each sample. The effluent passed through a tunable UV detector (TUV) tuned to 215 nm. The outlet from the UV detector passed to the electrospray source of the mass spectrometer. The capillary was held at 3 kV and dry nitrogen gas was purged at a flow of 750 I/h and a temperature of 250° C. The source block was kept at 120° C. and the large bore cone was flushed with nitrogen at 50 I/h with standard electrode potentials on the rest of the instrument. The MS was operated in high resolution mode with a nominal resolution of 35000. The ToF analyser was operated in ADC mode with an m/z window from 100-2000.

[3] = ThT fibrillation assay (physical stability); settings: 250 μM, pH 7.4, 37° C., 45 hours of incubation
Experimental: The Thioflavin T assay was performed as outlined in Schlein (2017), AAPS J, 19(2), 397-408.
This has traditionally been measured by visual inspection of the sample. However, that kind of measurement is very cumbersome and depending on the observer. Therefore, the application of a small molecule indicator probe is much more advantageous. Thioflavin T (ThT) is such a probe and has a distinct fluorescence signature when binding to fibrils [Naiki et al. (1989) Anal. Biochem. 177, 244-249; LeVine (1999) Methods. Enzymol. 309, 274-284].
The time course for fibril formation can be described by a sigmoidal curve with the following expression [Nielsen et al. (2001) Biochemistry 40, 6036-6046]:
Here, F is the ThT fluorescence at the time t. The constant t0 is the time needed to reach 50% of maximum fluorescence. The two important parameters describing fibril formation are the lag-time calculated by t0−2τ and the apparent rate constant kapp 1/τ.
Few of those intermediates nucleate to form a template onto which further intermediates may assembly and the fibrillation proceeds. The lag-time corresponds to the interval in which the critical mass of nucleus is built up and the apparent rate constant is the rate with which the fibril itself is formed.
Samples are prepared freshly before each assay. The drug substance was solved with 250 μM of the GIP derivative in 8 mM phosphate, 14 mg/mL propylene glycol, 58 mM phenol, pH 7.4. The pH of the sample was adjusted to the desired value using appropriate amounts of concentrated NaOH and HCl. Thioflavin T was added to the samples from a stock solution in H2O to a final concentration of 1 μM.
Sample aliquots of 200 μl were placed in each well of a 96 well microtiter plate (Packard OptiPlate™-96, white polystyrene). Four replica of each sample (corresponding to one test condition) was placed in one column of wells. The plate was sealed with Scotch Pad (Qiagen).
Incubation, shaking and measurement of the ThT fluorescence emission were done in a Fluoroskan Ascent FL fluorescence platereader (Thermo Labsystems). […] Fluorescence measurement was done using excitation through a 444 nm filter and measurement of emission through a 485 nm filter.
Each run was initiated by incubating the plate at the assay temperature for 10 min. The plate was measured every 20 minutes for a desired period of time. Between each measurement, the plate was shaken and heated as described.
After completion of the ThT assay the replica of each sample was pooled and centrifuged at 20000 rpm for 30 minutes at 18° C. The supernatant was filtered through a 0.22 μm filter and an aliquot was transferred to a HPLC vial. The concentration of the filtered sample relative to the initial sample (in percentage) was reported as the recovery.
The measurement points were saved in Microsoft Excel format for further processing and curve drawing and fitting was performed using GraphPad Prism. […] The data points were a mean of the four replica and shown with standard deviation error bars. Only data obtained in the same experiment (i.e. samples on the same plate) were presented in the same graph ensuring a relative measure of fibrillation between experiments.
The data set may be fitted to Eq. (1).

[4] = Dynamic Light Scattering Stability Index (DLS-SI); settings: 250 μM, pH 7.4, 4 weeks at 25° C.

Molecule: CCCC[C@H](NC(=O)[C@H](C)NC(=O)[C@@H](NC(=O)[C@H](CO)NC(=O)[C@H](Cc1ccc(O)cc1)NC(=O)[C@H](CC(=O)O)NC(=O)[C@H](CO)NC(=O)[C@@H](NC(=O)[C@H](Cc1ccccc1)NC(=O)[C@@H](NC(=O)CNC(=O)[C@H](CCC(=O)O)NC(=O)C(C)(C)NC(=O)[C@@H](N)Cc1ccc(O)cc1)[C@@H](C)O)[C@@H](C)CC)[C@@H](C)CC)C(=O)N[C@@H](CC(=O)O)C(=O)N[C@@H](CCCCN)C(=O)N[C@H](C(=O)N[C@@H](CCCNC(=N)N)C(=O)N[C@@H](CCC(N)=O)C(=O)N[C@@H](CCC(=O)O)C(=O)N[C@@H](CC(=O)O)C(=O)N[C@@H](Cc1ccccc1)C(=O)N[C@H](C(=O)N[C@@H](CCCCNC(=O)CC[C@H](NC(=O)CC[C@H](NC(=O)CC[C@H](NC(=O)C1CCC(CNC(=O)CCCCCCCCCCCCCCCCCCC(=O)O)CC1)C(=O)O)C(=O)O)C(=O)O)C(=O)N[C@@H](Cc1c[nH]c2ccccc12)C(=O)N[C@@H](CC(C)C)C(=O)N[C@@H](CC(C)C)C(=O)N[C@@H](C)C(=O)N[C@@H](CCC(N)=O)C(=O)N[C@@H](CCCCN)C(=O)NCC(=O)O)C(C)C)[C@@H](C)CC (stereo partly drawn) [Compound 10, N{Epsilon-24}-[(4S)-4-carboxy-4-[[(4S)-4-carboxy-4-[[(4S)-4-carboxy-4-[[4-[(19-carboxynonadecanoylamino)methyl]cyclohexanecarbonyl]amino]butanoyl]amino]-butanoyl]amino]butanoyl]-[Aib2,Nle14,Arg18,Glu20,Lys24]-hGIP(1-31)] (H-Y[Aib]EGTFISDYSIA[Nle]DKIRQEDFVK([γGlu-γGlu-γGlu-X1])WLLAQKG-OH; N-terminus and C-terminus assumed)
- HMWP formation (%/month) [1]: 1.50 %/month
- Purity loss (%/month) [2]: 4.80 %/month
- ThT Assay Lag time [3]: >45 h
- DLS-SI Dimensionless [4]: 1.7
- DLS-SI precipitates [4]: No

Molecule: Y[Aib]EGTFISDYSIALDKIHQQDFVK([AEEA-AEEA-γGlu-C18 diacid])WLLAQKGKKNDWKHNITQ [Compound 45, N{Epsilon-24}-[2-[2-[2-[[2-[2-[2-[[(4S)-4-carboxy-4-(17-carboxyheptadecanoylamino)butanoyl]amino]ethoxy]ethoxy]acetyl]amino]ethoxy]ethoxy]acetyl]-[Aib2,Leu14,Lys24]-hGIP]
- HMWP formation (%/month) [1]: 8.17 %/month
- Purity loss (%/month) [2]: 47.22 %/month
- ThT Assay Lag time [3]: >45 h
- DLS-SI Dimensionless [4]: 6.7
- DLS-SI precipitates [4]: No

Molecule: CCCC[C@H](NC(=O)[C@H](C)NC(=O)[C@@H](NC(=O)[C@H](CO)NC(=O)[C@H](Cc1ccc(O)cc1)NC(=O)[C@H](CC(=O)O)NC(=O)[C@H](CO)NC(=O)[C@@H](NC(=O)[C@H](Cc1ccccc1)NC(=O)[C@@H](NC(=O)CNC(=O)[C@H](CCC(=O)O)NC(=O)C(C)(C)NC(=O)[C@@H](Cc1ccc(O)cc1)NC(C)=O)[C@@H](C)O)[C@@H](C)CC)[C@@H](C)CC)C(=O)N[C@@H](CC(=O)O)C(=O)N[C@@H](CCCCN)C(=O)N[C@H](C(=O)N[C@@H](Cc1c[nH]cn1)C(=O)N[C@@H](CCC(N)=O)C(=O)N[C@@H](CCC(N)=O)C(=O)N[C@@H](CC(=O)O)C(=O)N[C@@H](Cc1ccccc1)C(=O)N[C@H](C(=O)N[C@@H](CCCCNC(=O)CC[C@H](NC(=O)CC[C@H](NC(=O)CC[C@H](NC(=O)C1CCC(CNC(=O)CCCCCCCCCCCCCCCCCCC(=O)O)CC1)C(=O)O)C(=O)O)C(=O)O)C(=O)N[C@@H](Cc1c[nH]c2ccccc12)C(=O)N[C@@H](CC(C)C)C(=O)N[C@@H](CC(C)C)C(=O)N[C@@H](C)C(=O)N[C@@H](CCC(N)=O)C(=O)N[C@@H](CCCCN)C(=O)N1CCC[C@H]1C(N)=O)C(C)C)[C@@H](C)CC (stereo partly drawn) [Compound 32, N{1}-acetyl,N{Epsilon-24}-[(4S)-4-carboxy-4-[[(4S)-4-carboxy-4-[[(4S)-4-carboxy-4-[[4-[(19-carboxynonadecanoylamino)methyl]cyclohexanecarbonyl]amino]butanoyl]-amino]butanoyl]amino]butanoyl]-[D-Tyr1,Aib2,Nle14,Lys24,Pro31]-hGIP(1-31) amide] (Ac-[dY][Aib]EGTFISDYSIA[Nle]DKIHQQDFVK([γGlu-γGlu-γGlu-X1])WLLAQKP-NH2)
- HMWP formation (%/month) [1]: 0.66 %/month
- Purity loss (%/month) [2]: 2.80 %/month
- ThT Assay Lag time [3]: >45 h
- DLS-SI Dimensionless [4]: 1.7
- DLS-SI precipitates [4]: No
